Assay results reported in ChEMBL document CHEMBL1201862, “PubChem BioAssay data set” (2004).
Activity calls are given as the source filed them.

Key:
[1] = test system: Escherichia coli; assay: microbe, parasite or virus in culture
[2] = cytotoxicity in HPDE-C7 cells, cell-based, fluorescence, HTS (AID 430); format: functional; conditions: Homo sapiens
[3] = inhibitors of intracellular T. cruzi replication, confirmation, NIH3T3 host cells, beta-gal luminescence (AID 2044); format: functional, cell-based;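 note: intracellular parasites grown in NIH/3T3 mouse fibroblasts as host cells; luminescent beta-galactosidase reporter signal from transgenic T. cruzi replicating inside host cells; inhibitors lower the luminescence signal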
[4] = cytotoxicity in KRAS-transformed pancreatic duct cells, primary screen, cell-based, fluorescence, HTS (AID 431); format: functional; conditions: Homo sapiens;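 note: cell line used: HPDE-C7K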
[5] = growth suppression of PTEN-null colon cells, dose response, cell-based, HCT116 PTEN knockout (AID 1047); format: functional;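 note: HCT116 colon tumor cells with PTEN knocked out; cells exposed to compound for 60 hours before readout; potency for loss of cell viability measured by luminescence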
[6] = cytotoxicity toward NIH3T3 fibroblasts, dose response, counter-screen, cell-based, ATP luminescence, mouse fibroblasts (AID 2010); format: functional;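 note: cells exposed to compound for about 90 hours before reading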
[7] = growth suppression of beta-catenin-knockout colon cells, dose response, cell-based, HCT116, human colon tumor (AID 1045); format: functional;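 note: HCT116 colon tumor cells with beta catenin knocked out; cells exposed to compound for 60 hours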
[8] = test system: Vero; assay: Vero cell cytotoxicity, cytotoxicity control for flavivirus capping enzyme inhibitors (AID 588742); format: functional; conditions: Chlorocebus sabaeus
[9] = NIH-3T3 fibroblast cytotoxicity, dose response, cytotoxicity control, cell-based, fluorescence, Alamar Blue, secondary assay (AID 2327); format: functional;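 note: NIH-3T3 mouse fibroblasts cultured with fluconazole at 8 µg/mL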
[10] = target: T1, Heat shock factor protein 1 (Mus musculus, UniProt P38532); assay: inhibition of MG132-induced HSE-luciferase signal, confirmation, cell-based, NIH3T3, luminescence, dose retest (AID 2382); format: functional;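 note: NIH3T3 fibroblasts with HSF1-driven luciferase reporter stressed by proteasome inhibitor MG132; luminescence from HSF1-driven luciferase expression after 8 hours of MG132 stress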
T1 sequence (P38532 whole entry): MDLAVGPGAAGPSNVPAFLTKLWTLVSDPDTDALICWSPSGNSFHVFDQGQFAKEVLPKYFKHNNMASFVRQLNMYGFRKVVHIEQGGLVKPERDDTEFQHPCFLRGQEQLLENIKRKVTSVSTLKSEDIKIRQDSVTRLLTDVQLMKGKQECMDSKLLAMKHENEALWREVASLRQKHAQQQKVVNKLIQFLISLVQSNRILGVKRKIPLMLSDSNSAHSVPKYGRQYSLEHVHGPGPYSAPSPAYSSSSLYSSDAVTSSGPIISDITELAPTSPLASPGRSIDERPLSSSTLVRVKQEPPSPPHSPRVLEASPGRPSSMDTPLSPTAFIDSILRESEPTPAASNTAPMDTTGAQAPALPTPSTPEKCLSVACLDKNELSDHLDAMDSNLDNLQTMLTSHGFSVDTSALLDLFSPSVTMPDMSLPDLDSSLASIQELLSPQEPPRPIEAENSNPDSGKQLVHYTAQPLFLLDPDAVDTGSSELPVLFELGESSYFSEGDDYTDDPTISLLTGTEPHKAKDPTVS

[11] = C. albicans growth with fluconazole, confirmation, fluorescence, retest (AID 2467); format: functional, cell-based
[12] = target: Dual specificity tyrosine-phosphorylation-regulated kinase 1A (Rattus norvegicus, UniProt Q63470); format: biochemical, Homo sapiens
[13] = target: T2, Oxysterols receptor LXR-beta (Homo sapiens, UniProt P55055); format: functional, cell-based;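 note: Cell-based luminescence dose-response assay of agonist activity at LXR, run as a confirmatory counterscreen to a daf-12 agonist screen; HEK293 cells with Gal4-LXR fusion and GAL4-driven luciferase reporter; agonist potency from rising luciferase signal of a Gal4-LXR reporter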
T2 sequence (P55055 whole entry): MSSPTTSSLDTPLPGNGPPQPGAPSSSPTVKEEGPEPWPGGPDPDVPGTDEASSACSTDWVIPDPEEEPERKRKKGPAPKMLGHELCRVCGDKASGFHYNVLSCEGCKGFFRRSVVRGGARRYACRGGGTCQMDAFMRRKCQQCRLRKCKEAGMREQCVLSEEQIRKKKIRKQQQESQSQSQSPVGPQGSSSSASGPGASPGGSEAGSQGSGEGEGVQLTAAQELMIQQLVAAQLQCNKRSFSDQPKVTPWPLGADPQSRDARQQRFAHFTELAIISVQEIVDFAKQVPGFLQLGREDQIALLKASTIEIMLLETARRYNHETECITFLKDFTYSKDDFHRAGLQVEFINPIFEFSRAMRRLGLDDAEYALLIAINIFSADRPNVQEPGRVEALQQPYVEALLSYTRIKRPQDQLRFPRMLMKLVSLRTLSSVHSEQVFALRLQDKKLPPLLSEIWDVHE

[14] = cells
[15] = target: T3, Serine/threonine-protein phosphatase (Candida dubliniensis (strain CD36 / CBS 7987 / NCPF 3949 / NRRLY-17841) (Yeast), UniProt B9W6M3); assay: calcineurin pathway inhibitors in yeast reporter, dose response, S. cerevisiae, CDRE-lacZ, luminescence, secondary (AID 2388); format: functional, cell-based;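 note: yeast reporter cells carrying a calcineurin-responsive lacZ construct stimulated with calcium chloride; luminescent beta-galactosidase reporter signal in whole cells rather than isolated phosphatase activity; potency for inhibition where a drop in reporter signal means calcineurin blockade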
T3 sequence (B9W6M3 whole entry): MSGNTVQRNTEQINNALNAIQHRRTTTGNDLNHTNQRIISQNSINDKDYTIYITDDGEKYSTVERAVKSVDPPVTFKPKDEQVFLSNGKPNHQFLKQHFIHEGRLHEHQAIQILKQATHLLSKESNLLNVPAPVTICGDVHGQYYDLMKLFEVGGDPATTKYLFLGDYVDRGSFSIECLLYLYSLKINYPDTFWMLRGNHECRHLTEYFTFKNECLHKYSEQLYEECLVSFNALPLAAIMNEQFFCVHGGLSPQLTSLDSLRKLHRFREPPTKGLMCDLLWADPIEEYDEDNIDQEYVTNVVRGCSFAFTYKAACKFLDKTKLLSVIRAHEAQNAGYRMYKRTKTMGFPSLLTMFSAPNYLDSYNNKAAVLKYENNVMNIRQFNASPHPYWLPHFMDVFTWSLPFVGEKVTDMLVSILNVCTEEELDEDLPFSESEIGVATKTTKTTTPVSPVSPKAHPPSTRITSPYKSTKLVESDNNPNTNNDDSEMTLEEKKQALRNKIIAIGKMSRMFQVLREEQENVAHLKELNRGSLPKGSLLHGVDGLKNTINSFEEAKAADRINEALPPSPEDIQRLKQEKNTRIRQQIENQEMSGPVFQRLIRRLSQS

[16] = Luminescence Cell-Based Dose Retest to Confirm Inhibitors of Cancer Stem Cells. [Related pubchem assays (depositor defined):AID2717, AID2721]; format: functional; conditions: Homo sapiens
[17] = target: ATP-dependent molecular chaperone HSP82 (Candida albicans (strain WO-1) (Yeast), UniProt C4YTQ8); assay: loss of DOC-induced GRE-beta-galactosidase reporter signal, dose response, Hsp90 inhibitor project, S. cerevisiae, luminescence (AID 2400); format: functional, cell-based;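 note: beta-galactosidase luminescence from glucocorticoid response element reporter as proxy for Hsp90 function; inhibitor potency where signal loss means Hsp90 inhibition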
[18] = target: Mu-type opioid receptor (Homo sapiens, UniProt P35372); format: functional, cell-based;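 note: U2OS cells with beta-arrestin recruitment to OPRM1 by beta-gal complementation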
[19] = target: 5-hydroxytryptamine receptor 2A (Mus musculus, UniProt P35363); format: functional, cell-based;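 note: CHO-K1 cells with tagged receptor and beta-arrestin; agonist potency measured as compound-induced activation of the receptor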
[20] = target: T4, Microphthalmia-associated transcription factor (Homo sapiens, UniProt O75030); assay: TRPM1 promoter luciferase signal decrease, dose response, MITF inhibitor project, cell-based, SK-MEL-5, cherry-picked, set 3 (AID 493073); format: functional
T4 sequence (O75030 whole entry): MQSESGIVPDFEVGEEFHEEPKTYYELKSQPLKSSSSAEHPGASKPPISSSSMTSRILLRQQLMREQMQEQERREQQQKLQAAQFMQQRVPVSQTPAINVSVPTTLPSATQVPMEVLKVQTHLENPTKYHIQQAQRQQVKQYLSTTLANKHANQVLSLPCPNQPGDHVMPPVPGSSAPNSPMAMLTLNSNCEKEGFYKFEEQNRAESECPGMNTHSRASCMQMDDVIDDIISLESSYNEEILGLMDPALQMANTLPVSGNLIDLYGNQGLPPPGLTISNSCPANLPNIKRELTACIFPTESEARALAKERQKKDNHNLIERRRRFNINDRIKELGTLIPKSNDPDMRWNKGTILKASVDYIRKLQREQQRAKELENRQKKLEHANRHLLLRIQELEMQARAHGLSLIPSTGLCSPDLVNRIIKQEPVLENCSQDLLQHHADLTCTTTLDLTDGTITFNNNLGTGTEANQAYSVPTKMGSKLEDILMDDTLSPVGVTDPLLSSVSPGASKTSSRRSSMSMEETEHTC

[21] = test system: HeLa; assay: HeLa cell cytotoxicity, dose response, cytotoxicity control for MITF activator project, CellTiter-Glo luminescence, cherry-pick samples (AID 540259); format: functional, cell-based; conditions: Homo sapiens
[22] = Luminescence Cell-Based Dose Response HTS to Identify Activators of Luciferase Translation or Activity in H4 […] Cells. [Related pubchem assays: 1829 (Project Summary), 1814 (Primary HTS)]; format: functional
[23] = test system: H4; assay: Luminescence Cell-Based Dose Response HTS to Identify Activators of 5'UTR Stem-Loop Driven Prion Protein mRNA Translation in H4 Neuroglioblastoma Cells. [Related pubchem assays: 1829 (Project Summary), 1814 (Primary HTS)]; format: functional; conditions: Homo sapiens

Sequence of 5-hydroxytryptamine receptor 2A (P35363 whole entry): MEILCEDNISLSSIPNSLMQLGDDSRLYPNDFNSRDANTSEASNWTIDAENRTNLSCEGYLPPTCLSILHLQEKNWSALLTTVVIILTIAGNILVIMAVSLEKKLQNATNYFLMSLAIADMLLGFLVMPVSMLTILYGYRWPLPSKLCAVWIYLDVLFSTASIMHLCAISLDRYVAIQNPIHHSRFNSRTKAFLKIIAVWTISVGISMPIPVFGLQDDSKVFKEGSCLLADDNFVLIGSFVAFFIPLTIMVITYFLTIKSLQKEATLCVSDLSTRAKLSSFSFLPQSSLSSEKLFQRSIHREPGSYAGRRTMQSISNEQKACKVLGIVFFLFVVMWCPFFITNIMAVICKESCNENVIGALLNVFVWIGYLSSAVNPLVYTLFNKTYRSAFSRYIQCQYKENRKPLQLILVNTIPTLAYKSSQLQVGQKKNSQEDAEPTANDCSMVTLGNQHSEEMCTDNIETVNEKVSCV
Sequence of Mu-type opioid receptor (P35372 whole entry): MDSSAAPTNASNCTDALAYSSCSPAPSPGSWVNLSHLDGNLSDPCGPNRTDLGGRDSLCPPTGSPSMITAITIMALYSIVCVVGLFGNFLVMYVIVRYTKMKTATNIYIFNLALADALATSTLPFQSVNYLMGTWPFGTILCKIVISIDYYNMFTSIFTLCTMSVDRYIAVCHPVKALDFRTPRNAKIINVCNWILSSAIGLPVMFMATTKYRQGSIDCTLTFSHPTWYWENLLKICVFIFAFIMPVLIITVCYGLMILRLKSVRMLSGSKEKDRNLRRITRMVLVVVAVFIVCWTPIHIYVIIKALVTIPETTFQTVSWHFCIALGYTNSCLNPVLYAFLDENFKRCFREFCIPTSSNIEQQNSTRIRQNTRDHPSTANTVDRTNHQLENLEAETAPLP
Sequence of ATP-dependent molecular chaperone HSP82 (C4YTQ8 whole entry): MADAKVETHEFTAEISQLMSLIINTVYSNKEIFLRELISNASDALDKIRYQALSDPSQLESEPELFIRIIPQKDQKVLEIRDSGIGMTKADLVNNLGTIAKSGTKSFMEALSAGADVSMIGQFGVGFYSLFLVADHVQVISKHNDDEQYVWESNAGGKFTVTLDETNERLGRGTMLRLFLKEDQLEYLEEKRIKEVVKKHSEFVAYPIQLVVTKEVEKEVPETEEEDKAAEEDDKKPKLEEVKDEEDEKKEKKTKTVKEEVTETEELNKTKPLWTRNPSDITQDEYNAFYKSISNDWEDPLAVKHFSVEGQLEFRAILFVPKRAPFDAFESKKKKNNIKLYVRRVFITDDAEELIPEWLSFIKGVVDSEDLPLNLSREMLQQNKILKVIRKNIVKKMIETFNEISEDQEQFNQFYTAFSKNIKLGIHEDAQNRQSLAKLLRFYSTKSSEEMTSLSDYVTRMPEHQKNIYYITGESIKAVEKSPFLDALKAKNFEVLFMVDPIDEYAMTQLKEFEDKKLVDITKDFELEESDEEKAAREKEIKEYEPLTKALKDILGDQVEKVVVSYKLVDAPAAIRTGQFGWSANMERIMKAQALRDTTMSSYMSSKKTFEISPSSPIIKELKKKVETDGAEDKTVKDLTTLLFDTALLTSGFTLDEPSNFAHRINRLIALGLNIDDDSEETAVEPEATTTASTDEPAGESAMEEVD

CCc1ccc(N2CC(C(=O)N3CCN(c4ccccn4)CC3)CC2=O)cc1 (configuration not stated)
AC50 [1]: 29.9 µM (active)

CN1CCc2c(C#N)c(N3CCCCC3)nc(NCc3ccccc3)c2C1
EC50 [2]: 16.8 µM (active) | EC50 [3]: 0.639 µM (active) | EC50 [4]: 2.44 µM (active) | EC50 [5]: 17.8 µM (active) | EC50 [6]: > 60 µM (not active) | EC50 [7]: 13.5 µM (active) | CC50 [8]: > 40 µM (active)

C(=N\NC1=Nc2cccc3cccc1c23)/c1ccccn1
EC50 [9]: 2.55 µM (inconclusive) | EC50 [10]: 3.2 µM (active) | EC50 [11]: 1.05 µM (active) | EC50 [3]: 0.619 µM (active) | EC50 [6]: > 60 µM (not active) | AC50 [12]: 9.7 µM (active) | EC50 [13]: > 67.5 µM (inactive) | EC50 [14]: > 67.5 µM (inactive)

O=[N+]([O-])c1cccc(-c2cc(-c3cc(Br)ccc3O)n[nH]2)c1
EC50 [9]: 19 µM (inconclusive) | EC50 [11]: 0.954 µM (active) | EC50 [15]: > 180 µM (inactive) | AC50 [16]: 2.03 µM (active) | EC50 [17]: 11.9 µM (active)

CC(=O)c1cccc(OCC(O)CNCC2COc3ccccc3O2)c1 (configuration not stated)
EC50 [18]: 92.5 µM (inactive) | EC50 [19]: 2.85 µM (active)

Oc1ccc(C2=CCNCC2)cc1O
EC50 [18]: 92.4 µM (inactive) | EC50 [19]: 0.0242 µM (active)

CCOc1ccc2nc(C)cc(Nc3cccc([N+](=O)[O-])c3)c2c1
EC50 [5]: 5.88 µM (active) | EC50 [7]: 7.34 µM (active) | AC50 [20]: 17.8 µM (active)

CCSc1nnc(NC(=O)NC2CCCCC2)s1
AC50 [21]: 136 µM (active)

CC(C)c1ccc(/C=N/NC(=O)C2CCCC2)cc1
EC50 [22]: 8.02 µM (active) | EC50 [23]: 2.72 µM (active) | AC50 [21]: 132 µM (active)
